Source: patent US8030354B2, “Substituted biphenyl GPR40 modulators” (Amgen Inc., priority 2007, dated 2011)

Experiments:
GPR40 [1] = molecular target: T1, GPR40 (Homo sapiens, UniProt O14842); test: Cell-based aequorin assay (CHO cells stably expressing GPR40 and aequorin); set-up: expressed in transfected cells; host or cells: CHO cells stably transfected with GPR40 and aequorin; conditions: activation of human GPR40, CHO cells, 0.01% HSA
In short: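 CHO cells stably co-expressing GPR40 and aequorin, loaded with coelenterazine (1 ug/mL, 2 h, room temperature) in H/HBSS with 20 mM Hepes and 0.01% fatty acid-free HSA. Serially diluted compounds added; luminescence recorded over 20 s. EC50 from dose-response of maximum relative light units.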

GPR40 [2] = molecular target: T1, GPR40; test: Inositol phosphate accumulation assay (A9_GPR40 cells); assay type: cell-based; set-up: expressed in transfected cells; host or cells: CHO cells stably transfected with GPR40 and aequorin; conditions: inositol phosphate assay, A9_GPR40 cells, 1 hour; read-out: IP3 EC50
In short: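 [^3H] inositol phosphate accumulation was measured by SPA after 1 h compound exposure at 37° C in HBSS/10 mM LiCl containing HSA, ending with a 20 mM formic acid quench. The GPR40-transfected A9 cells had first been labelled overnight (16 h) with 1 μCi/mL ^3H-inositol.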

T1 sequence (O14842 whole entry): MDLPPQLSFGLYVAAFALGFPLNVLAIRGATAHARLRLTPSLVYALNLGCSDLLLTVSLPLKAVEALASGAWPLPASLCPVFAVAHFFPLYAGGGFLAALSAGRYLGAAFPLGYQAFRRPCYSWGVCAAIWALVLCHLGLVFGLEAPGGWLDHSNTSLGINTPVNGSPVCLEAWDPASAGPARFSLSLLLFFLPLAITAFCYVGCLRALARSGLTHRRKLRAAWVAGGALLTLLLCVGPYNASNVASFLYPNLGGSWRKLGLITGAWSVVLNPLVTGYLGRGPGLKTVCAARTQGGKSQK

| SMILES | EC50 (GPR40 [1]) [nM] | EC50 (GPR40 [2]) [nM] |
| --- | --- | --- |
| COc1ccc(F)c(-c2ccc(COc3cccc([C@@H](CC(=O)O)CC4CC4)c3)cc2[C@H]2OCCC2(C)C)c1 (single isomer, unassigned) [Example 69.44] | 100 to 1000 | 10 to 100 |
| COc1ccc(F)c(-c2ccc(COc3cccc(C4(CC(=O)O)CCCCC4)c3)cc2C2CCCC2(C)C)c1 (single isomer, unassigned) [Example 105.1, (1-{3-[2-((S)-2,2-Dimethyl-cyclopentyl)-2′-fluoro-5′-methoxy-biphenyl-4-ylmethoxy]-phenyl}-cyclohexyl)-acetic acid or (1-{3-[2-((R)-2,2-dimethyl-cyclopentyl)-2′-fluoro-5′-methoxy-biphenyl-4-ylmethoxy]-phenyl}-cyclohexyl)-acetic acid] | 100 to 1000 | 10 to 100 |
| COc1ccc(F)c(-c2ccc(COc3cccc(C(C)CC(=O)O)c3)cc2C2(C)CC2)c1 (single isomer, unassigned) [Example 64.18, (3R)-3-(3-(((2′-Fluoro-2-(1-methylcyclopropyl)-5′-(methyloxy)-1,1′-biphenyl-4-yl)methyl)oxy)phenyl)butanoic acid or (3S)-3-(3-(((2′-fluoro-2-(1-methylcyclopropyl)-5′-(methyloxy)-1,1′-biphenyl-4-yl)methyl)oxy)phenyl)butanoic acid] | 100 to 1000 | 100 to 1000 |
| CCCCOc1cc(COc2cccc([C@@H](CC(=O)O)C(F)(F)F)c2)ccc1-c1cc(OC)ccc1F (single isomer, unassigned) [Example 7, (3R)-3-(3-(((2-(Butyloxy)-2′-fluoro-5′-(methyloxy)-1,1′-biphenyl-4-yl)methyl)oxy)phenyl)-4,4,4-trifluorobutanoic acid or (3S)-3-(3-(((2-(butyloxy)-2′-fluoro-5′-(methyloxy)-1,1′-biphenyl-4-yl)methyl)oxy)phenyl)-4,4,4-trifluorobutanoic acid] | 1000 to 10000 | 1000 to 10000 |
| COc1ccc(F)c(-c2ccc(COc3cccc(C(CC(=O)O)C4CC4)c3F)cc2C(F)C(C)(C)C)c1 (single isomer, unassigned) [Example 83.9] | 100 to 1000 | < 10 |
| CO[C@H](c1cc(COc2cccc([C@@H](CC(=O)O)C3CC3)c2F)ccc1-c1cc(F)ccc1F)C(C)(C)C (single isomer, unassigned) [Example 83.27] | 100 to 1000 | 10 to 100 |
| COc1ccc(F)c(-c2ccc(COc3cccc(C(CC(=O)O)C4CC4)c3)cc2CN2C(C)CCCC2C)c1 (single isomer, unassigned) [Example 66.70] | 100 to 1000 | 10 to 100 |
| COc1ccc(F)c(-c2ccc(COc3cccc(C(C)CC(=O)O)c3)cc2C2=CCCCCC2)c1 (single isomer, unassigned) [Example 64.12, (3R)-3-(3-(((2-(1-Cyclohepten-1-yl)-2′-fluoro-5′-(methyloxy)-1,1′-biphenyl-4-yl)methyl)oxy)phenyl)butanoic acid or (3S)-3-(3-(((2-(1-cyclohepten-1-yl)-2′-fluoro-5′-(methyloxy)-1,1′-biphenyl-4-yl)methyl)oxy)phenyl)butanoic acid] | 100 to 1000 | 10 to 100 |
| CCCCOc1cc(COc2cccc([C@H](CC)CC(=O)O)c2)ccc1-c1cc(OC)ccc1F (single isomer, unassigned) [Example 18, (3R)-3-(3-(((2-(Butyloxy)-2′-fluoro-5′-(methyloxy)-1,1′-biphenyl-4-yl)methyl)oxy)phenyl)pentanoic acid or (3S)-3-(3-(((2-(butyloxy)-2′-fluoro-5′-(methyloxy)-1,1′-biphenyl-4-yl)methyl)oxy)phenyl)pentanoic acid] | 100 to 1000 | 100 to 1000 |
| C=CC(C)(C)[C@H](OC)c1cc(COc2cccc([C@H](CCC)CC(=O)O)c2)ccc1-c1cc(OC)ccc1F (single isomer, unassigned) [Example 67.24] | 100 to 1000 | 10 to 100 |
| COc1cc(-c2ccc(COc3cccc([C@@H](CC(=O)O)C4CC4)c3)cc2C2=CCCC2(C)C)c(F)cn1 (single isomer, unassigned) [Example 66.12, (3S)-3-(3-(3-(5,5-Dimethylcyclopent-1-enyl)-4-(5-fluoro-2-methoxypyridin-4-yl)benzyloxy)phenyl)-3-cyclopropylpropanoic acid or (3R)-3-(3-(3-(5,5-dimethylcyclopent-1-enyl)-4-(5-fluoro-2-methoxypyridin-4-yl)benzyloxy)phenyl)-3-cyclopropylpropanoic acid] | 100 to 1000 | 10 to 100 |
| CCC(CC(=O)O)c1cccc(OCc2ccc(-c3cc(OC)ncc3F)c(C(OC)C(C)(C)C)c2)c1F (single isomer, unassigned) [Example 77.10] | 100 to 1000 | < 10 |
| COc1ccc(F)c(-c2ccc(COc3cccc([C@@H](CC(=O)O)CC4CC4)c3)cc2C(OC)C(C)(C)C)c1 (single isomer, unassigned) [Example 69.18, (3R)-4-Cyclopropyl-3-(3-(((2-(2,2-dimethyl-1-(methyloxy)propyl)-2′-fluoro-5′-(methyloxy)-1,1′-biphenyl-4-yl)methyl)oxy)phenyl)butanoic acid or (3S)-4-cyclopropyl-3-(3-(((2-(2,2-dimethyl-1-(methyloxy)propyl)-2′-fluoro-5′-(methyloxy)-1,1′-biphenyl-4-yl)methyl)oxy)phenyl)butanoic acid] | 100 to 1000 | < 10 |

More lines, now with the values ahead:

| EC50 (GPR40 [1]) [nM] | EC50 (GPR40 [2]) [nM] | SMILES |
| --- | --- | --- |
| 100 to 1000 | 10 to 100 | CCC[C@H](CC(=O)O)c1cccc(OCc2ccc(-c3cc(OC)ccc3F)c(N3CCCCC3)c2)c1 (single isomer, unassigned) [Example 67.20, (3R)-3-(3-(((2′-Fluoro-5′-(methyloxy)-2-(1-piperidinyl)-1,1′-biphenyl-4-yl)methyl)oxy)phenyl)hexanoic acid or (3S)-3-(3-(((2′-fluoro-5′-(methyloxy)-2-(1-piperidinyl)-1,1′-biphenyl-4-yl)methyl)oxy)phenyl)hexanoic acid] |
| 100 to 1000 | < 10 | COc1cc(-c2ccc(COc3cc(F)cc(C(CC(=O)O)CC4CC4)c3)cc2C2CCCC2(C)C)c(F)cn1 (single isomer, unassigned) [Example 89.4] |
| 100 to 1000 | 100 to 1000 | C=CC[C@H](CC(=O)O)c1cccc(OCc2ccc(-c3cc(OC)ccc3F)c(C(C)(C)C)c2)c1 (single isomer, unassigned) [Example 51, (3R)-3-(3-(((2-(1,1-Dimethylethyl)-2′-fluoro-5′-(methyloxy)-1,1′-biphenyl-4-yl)methyl)oxy)phenyl)-5-hexenoic acid or (3S)-3-(3-(((2-(1,1-dimethylethyl)-2′-fluoro-5′-(methyloxy)-1,1′-biphenyl-4-yl)methyl)oxy)phenyl)-5-hexenoic acid] |
| 100 to 1000 | < 10 | COc1ccc(F)c(-c2ccc(COc3cccc(C(CC(=O)O)C4CC4)c3F)cc2C2CCCCC2(C)C)c1 (single isomer, unassigned) [Example 83.7] |
| 100 to 1000 | 10 to 100 | COc1ccc(F)c(-c2ccc(COc3cccc(C(C)(C)CC(=O)O)c3)cc2C2=CCCC2(C)C)c1 [Example 85.2, 3-{3-[2-(5,5-Dimethyl-cyclopent-1-enyl)-2′-fluoro-5′-methoxy-biphenyl-4-ylmethoxy]-phenyl}-3-methyl-butyric acid] |
| 100 to 1000 | 10 to 100 | CCC[C@H](CC(=O)O)c1cccc(OCc2cc(C3=CCCC3(C)C)c(-c3cc(OC)ccc3F)cc2F)c1 (single isomer, unassigned) [Example 67.21] |
| 100 to 1000 | 100 to 1000 | CCCC(C)(C)c1cc(COc2cccc(C(C)CC(=O)O)c2)ccc1-c1cc(OC)ccc1F (single isomer, unassigned) [Example 64.11, (3R)-3-(3-(((2-(1,1-Dimethylbutyl)-2′-fluoro-5′-(methyloxy)-1,1′-biphenyl-4-yl)methyl)oxy)phenyl)butanoic acid or (3S)-3-(3-(((2-(1,1-dimethylbutyl)-2′-fluoro-5′-(methyloxy)-1,1′-biphenyl-4-yl)methyl)oxy)phenyl)butanoic acid] |
| 100 to 1000 | < 10 | COc1ccc(F)c(-c2ccc(COc3cccc(C(CC(=O)O)CC4CC4)c3F)cc2C2CCCC2(C)C)c1 (single isomer, unassigned) [Example 84.1] |
| 100 to 1000 | 100 to 1000 | CCCCOc1cc(COc2cccc(C(CC(=O)O)C3CCC3)c2)ccc1-c1cc(OC)ccc1F (single isomer, unassigned) [Example 70.4, (3S)-3-(3-(((2-(Butyloxy)-2′-fluoro-5′-(methyloxy)-1,1′-biphenyl-4-yl)methyl)oxy)phenyl)-3-cyclobutylpropanoic acid or (3R)-3-(3-(((2-(butyloxy)-2′-fluoro-5′-(methyloxy)-1,1′-biphenyl-4-yl)methyl)oxy)phenyl)-3-cyclobutylpropanoic acid] |
| 100 to 1000 | 10 to 100 | COc1ccc(F)c(-c2ccc(COc3cccc([C@@H](CC(=O)O)CC4CC4)c3)cc2SC(C)C)c1 (single isomer, unassigned) [Example 69.24, (R)-4-Cyclopropyl-3-[3-(2′-fluoro-2-isopropylsulfanyl-5′-methoxy-biphenyl-4-ylmethoxy)-phenyl]-butyric acid or (S)-4-cyclopropyl-3-[3-(2′-fluoro-2-isopropylsulfanyl-5′-methoxy-biphenyl-4-ylmethoxy)-phenyl]-butyric acid] |
